Assay results from patent publication US5543392A, “Digestive tract cell activating agent of EGF and lactoferrin” (Morinaga Milk Industry Co., Ltd., priority 1992, dated 1996).

Columns and labels:
IEC18 cells [1] = assay: Test 1: DNA synthesis acceleration activity of EGF (3H-thymidine incorporation); type: cell-based, rat; settings: for Quantity of incorporated 3H thymidine, average value (n = 4): 18 h, 1% FBS-DMEM
Description: This test was carried out to determine an optimum concentration for DNA synthesis acceleration activity of EGF relative to small intestine epithelial cells.
IEC18 cells (purchased from the American Type Culture Collection) which are epithelial crypt-cells of rat small intestine were inoculated into a 24-well culture plate by 10,000 cells per hole and cultured with Dulbecco modified Eagle's medium containing 10% fetal bovine serum (hereinafter abbreviated as "10% FBS-DMEM") until the cells became confluence (1 ml of medium was used per well). Then, the medium was replaced with 1% FBS-DMEM culture was conducted for another three days to introduce the cell cycle into the resting phase. The medium was replaced with of 1% FBS-DMEM (0.5 ml) containing EGF at various concentrations and culture was conducted for 18 hours. Then, the medium was replaced with DME (0.35 ml) containing ^3 H-thymidine (tritium labeling: thymidine 1 micro curie/ml), the cultuure was conducted for another two hours. The result cells were rinsed twice with phosphate-buffered saline [PBS (-), 2 ml], then, ice-cooled 5% trifluoroacetic acid (5% TFA, 2 ml) was added. This was stored in a refrigerator for an hour. The cells were washed twice with 5% TFA (2 ml) and 1N NaOH (0.4 ml) was added. By holding this at 37° C. for an hour, the cells were dissolved. Then, the solution was neutralized by adding 6N HCl (0.08 ml), and therefore, the quantity of ^3 H-thymidine incorporated into DNA was measured by means of a liquid scintillation counter.

IEC18 cells [2] = assay: Test 3: proliferation of small intestine epithelial cells (cell count by hemocytometer); type: cell-based, rat; settings: single addition of 10 ng/ml EGF; ten days culture; versus control group with no addition
Description: ICE18 cells (the same ones as in the Test 1) were inoculated onto a 24-well culture plate by 5,000 cells per well, and were cultured for ten days with 1% FBS DMEM (0.5 ml) containing the following test subjects. During this test period, the medium was replaced on the third and the sixth days, and the number of cells was measured on the third, the sixth and the tenth days. The number of cells was counted by a hemocytometer after treating the cells with 0.25% trypsin solution and suspending them in the solution.
The test subjects included a sample added with nothing, a sample added with 10 ng/ml EGF, a sample added with 50 μg/ml bLf or bLf-Hy, and a sample added with 10 ng/ml EGF and 50 μg/ml bLf or bLf-Hy.

Q: Which results are given for “EGF: Commercially available mouse submaxillary gland originating EGF (manufactured by Takara Shuzo Company) (NSYPGCPSSYDGYCLNGGVCMHIESLDSYTCNCVIGYSGDRCQTRDLRWWELR; not fully specified; Epidermal growth factor; UniProt P01132 977-1029, looked up)”?
A: Quantity of incorporated 3H thymidine, average value (n = 4) (IEC18 cells [1]; EGF concentration 0.08 ng/ml): 17874 cpm; Quantity of incorporated 3H thymidine, average value (n = 4) (IEC18 cells [1]; EGF concentration 0.2 ng/ml (so in the source)): 25398 cpm; Quantity of incorporated 3H thymidine, average value (n = 4) (IEC18 cells [1]; EGF concentration 0.4 ng/ml): 19644 cpm; Quantity of incorporated 3H thymidine, average value (n = 4) (IEC18 cells [1]; EGF concentration 10.0 ng/ml): 26152 cpm; Quantity of incorporated 3H thymidine, average value (n = 4) (IEC18 cells [1]; EGF concentration 50.0 ng/ml): 22665 cpm; optimum working concentration of EGF for DNA synthesis (IEC18 cells [1]; IEC18 cells): 10 ng/mL; number of cells (FIGS. 3 and 4) (IEC18 cells [2]): absence of effect
